Patent US11427575B2, “Antitumor compound for activating JWA gene and degrading HER2, preparation method thereof, and application thereof” (SIMCERE PHARMACEUTICAL CO., LTD., priority 2019, dated 2022)

What was measured:
SKBR3 cells = details: SKBR3, 1 and 10 μM, 10-15 d, vs control
Protocol: (§1) Two human breast cancer cell lines BT474 and SKBR3 were incubated in DMEM medium containing, respectively, 20% and 10% fetal bovine serum (FBS), conventional double-antibody, and were placed in a 37° C. incubator with 5% CO2. The BT474 and SKBR3 cells in the logarithmic growth phase were transferred into 6-well plates for 800 cells per well. After the cells adhered to the walls of the plates, the cells were cultured in the medium containing different concentrations (0, 1, and 10 μM) of JAC1, respectively. By observing the formation of each cell colony, the cells were continued to be cultured for 10-15 d, followed by removal of medium. After fixation with methanol and photographing, the number of the cell colonies (each containing more than 50 cells) was counted using the software ImageJ, and the computer program SPSS is used for statistical analysis.

BT474 cells = details: BT474, 1 and 10 μM, 10-15 d, vs control
Protocol: as §1

HER2 protein = test: Western blot of subcutaneous BT474 tumors, HER2; type: in vivo, BALB/c nude mice; details: treatment group
Protocol: BT474 human breast cancer cells in the logarithmic growth phase were suspended in ice-cold suspension buffer for a final concentration of 5×10^6/100 μL, followed by subcutaneous transplantations of the suspended cells into BALB/c nude mice. When the tumor grown up to 75-125 mm^3, the BALB/c nude mice were randomly divided into five equal groups, including a blank control group (Mock), a solvent control group (Vehicle), a 50 mg/kg JAC1 treatment group, a 100 mg/kg JAC1 treatment group, and a positive control group treated with Pacilitaxel and Trastuzumab (TH). Dose and administration: JAC1 was injected intraperitoneally into mice once daily; the dosage of Trastuzumab was 10 mg/kg injected intraperitoneally twice a week; the dosage of Pacilitaxel was 20 mg/kg injected intraperitoneally once a week. From the day of administration, mouse body weights and tumor diameters were measured every other 2 days, and the tumor volume was calculated using an equation. When the mice reached a humane endpoint at which the tumor volume increased to 2500-3000 mm^3, the research based on the mouse models was terminated and the laboratory mice were anesthetized and euthanized in a timely manner to alleviate animal suffering and perform the statistical analysis. […]

[1] = tested on: BT474 human breast cancer cells; test: Tumor growth in nude mice subcutaneously transplanted with BT474 cells; type: in vivo, BALB/c nude mice; details: for tumor growth (tumor volume): vs blank control; for tumor weight / tumor weight/mouse body weight ratio: P<0.05
Protocol: BT474 human breast cancer cells in the logarithmic growth phase were suspended in ice-cold suspension buffer for a final concentration of 5×10^6/100 μL, followed by subcutaneous transplantations of the suspended cells into BALB/c nude mice. When the tumor grown up to 75-125 mm^3, the BALB/c nude mice were randomly divided into five equal groups, including a blank control group (Mock), a solvent control group (Vehicle), a 50 mg/kg JAC1 treatment group, a 100 mg/kg JAC1 treatment group, and a positive control group treated with Pacilitaxel and Trastuzumab (TH). Dose and administration: JAC1 was injected intraperitoneally into mice once daily; the dosage of Trastuzumab was 10 mg/kg injected intraperitoneally twice a week; the dosage of Pacilitaxel was 20 mg/kg injected intraperitoneally once a week. From the day of administration, mouse body weights and tumor diameters were measured every other 2 days, and the tumor volume was calculated using an equation. When the mice reached a humane endpoint at which the tumor volume increased to 2500-3000 mm^3, the research based on the mouse models was terminated and the laboratory mice were anesthetized and euthanized in a timely manner to alleviate animal suffering and perform the statistical analysis.

## COc1cccc2sc(Nc3nc4c(F)cccc4s3)nc12 [JAC1, 4-fluoro-N-(4-methoxybenzene (d)thiazole-2-group) benzene (d) thiazole-2-amine]
SKBR3 cells
  colony-forming ability: significantly reduce the colony-forming ability
BT474 cells
  colony-forming ability: significantly reduce the colony-forming ability
HER2 protein
  HER2 protein level in tumor: repressed significantly
[1]; 50 mg/kg intraperitoneally once daily
  tumor growth (tumor volume): obvious results at suppressing tumor growth
[1]; 50 mg/kg ip once daily
  Tumor growth inhibition rate: 31.22%
  tumor weight: reduced
  tumor weight/mouse body weight ratio: decreased
[1]; 100 mg/kg intraperitoneally once daily
  tumor growth (tumor volume): obvious results at suppressing tumor growth
[1]; 100 mg/kg ip once daily
  Tumor growth inhibition rate: 46.21%
  tumor weight: reduced
  tumor weight/mouse body weight ratio: decreased
